Laboratory results taken from patent publication US20090221559A1 (priority 2005, published 2009).
pEC50, pIC50: −log10 of the molar value. Read-outs that look alike come from different tables or passages of the source.

Columns and labels:
[1] = test system: HCV replicon RNA replication in Huh-7 luc/neo (Huh-Luc) cells; experiment: HCV replicon assay (stable replicon cell reporter assay, luciferase read-out); assay type: cell-based, HCV type 1b; conditions: for EC50: read-out: Replicon Assay EC50 (μM), Huh-Luc cells, incubation of three days, luciferase activity
How it was run: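 Huh-7 cells stably carry a bicistronic HCV 1b NS3-NS5B subgenomic replicon with firefly luciferase and neo markers. Cells were plated with compound across a concentration range and incubated three days. Replication was measured as luciferase activity to give dose-response curves.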

[2] = target: T1, HCV NS5B polymerase (His-tagged, C-terminal 21 amino acid deleted NS5B, HC-J4) (Hepatitis C virus genotype 1b, UniProt O92972); experiment: NS5b polymerase assay (biochemical RdRp assay, 3H-GTP incorporation, SPA beads); set-up: species or system HCV genotype 1b; conditions: for IC50: NS5B Polymerase Assay IC50 (μM); for pIC50: 3H-GTP incorporation, 2 h at 25° C.
T1 construct: The cDNA encoding NS5B amino acid 1-570 (HC-J4, genotype 1b); His tag (His6, from pET-21b) (C); made in house; host or cells: E. coli BL21 (DE3)
How it was run: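 His-tagged C-terminal-21-aa-deleted NS5B (genotype 1b, HC-J4) at 200 nM was preincubated 15 min at RT with compound on 5′-biotinylated oligo(rG13)/poly(rC) template/primer before NTPs. Reaction with 600 nM GTP plus 0.1 μCi 3H-GTP and 5 mM MgCl2 in Tris pH 7.5 ran 2 h at 25 °C. Stopped with EDTA/SPA beads for incorporation counting.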

[3] = Hepatitis C virus, Huh-7, 72 h, read-out: Replicon Assay EC50, Huh-Luc cells, three days incubation, luciferase activity
[4] = NS5B Polymerase Assay IC50, 200 nM enzyme
[5] = Huh-Luc cells, three days incubation, luciferase activity, read-out: Replicon Assay EC50
[6] = 200 nM enzyme, read-out: NS5B Polymerase Assay IC50

T1 sequence (O92972 2417-3000, looked up, stated change not applied): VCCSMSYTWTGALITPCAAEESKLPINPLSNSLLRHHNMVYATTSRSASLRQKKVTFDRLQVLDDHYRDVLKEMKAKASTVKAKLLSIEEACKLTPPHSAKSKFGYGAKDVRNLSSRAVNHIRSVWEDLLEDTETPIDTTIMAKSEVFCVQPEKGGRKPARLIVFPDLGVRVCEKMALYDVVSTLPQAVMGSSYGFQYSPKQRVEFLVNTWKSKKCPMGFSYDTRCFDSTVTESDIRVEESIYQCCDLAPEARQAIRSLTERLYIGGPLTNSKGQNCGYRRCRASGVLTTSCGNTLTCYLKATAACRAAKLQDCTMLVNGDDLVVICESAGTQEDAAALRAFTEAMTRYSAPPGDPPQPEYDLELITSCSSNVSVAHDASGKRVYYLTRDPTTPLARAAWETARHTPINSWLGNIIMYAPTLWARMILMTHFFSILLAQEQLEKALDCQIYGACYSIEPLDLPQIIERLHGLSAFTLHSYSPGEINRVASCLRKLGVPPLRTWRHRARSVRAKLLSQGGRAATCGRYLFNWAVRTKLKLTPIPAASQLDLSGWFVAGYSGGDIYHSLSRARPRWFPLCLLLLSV

| SMILES | EC50 ([1]; Hepatitis C virus, Huh-7, 72 h) [µM] | IC50 [2] [µM] | pEC50 [1, 3] | pIC50 [2, 4] | other results |
| --- | --- | --- | --- | --- | --- |
| COc1ccc(C2CC(=O)C3=C(C2)Nc2ccccc2NC3c2cccc(F)c2)cc1 (stereo not drawn) [compound 327] | 12.5 | > 33.3 |  |  |  |
| COc1ccc(C2C3=C(CC(C)(C)CC3=O)Nc3ccccc3N2C(=O)CC(C)C)cc1 (stereo not drawn) [compound 41] |  |  | 5.07 | < 4.37 |  |
| Cc1ccc(C2C3=C(CC(C)(C)CC3=O)Nc3ccccc3N2C(=O)Cc2ccccc2)o1 (stereo not drawn) [compound 271] |  |  | 4.64 | < 4.48 |  |
| COc1ccc(C2CC(=O)C3=C(C2)Nc2ccccc2NC3c2ccccc2OC(C)C)cc1OC (stereo not drawn) [compound 370] | 3.43 | > 42.7 |  |  |  |
| CCCOc1cccc(C2C3=C(CC(C)(C)CC3=O)Nc3ccccc3N2C(C)=O)c1 (stereo not drawn) [compound 123] |  |  | < 4.49 | < 4.37 |  |
| CC1(C)CC(=O)C2=C(C1)Nc1ccccc1NC2/C(Cl)=C/c1ccccc1 (racemic) [compound 506, 11-(1-Chloro-2-phenylvinyl)-3,3-dimethyl-2,3,4,5,10,11-hexahydro-dibenzo[b,e][1,4]diazepin-1-one] | 56.7 | > 42.7 |  |  |  |
| COc1ccc(C2CC(=O)C3=C(C2)Nc2ccccc2NC3c2cccc(C)c2)cc1 (stereo not drawn) [compound 391] | 18.5 | > 42.7 |  |  |  |
| CC1(C)CC(=O)C2=C(C1)Nc1ccc(C#N)cc1NC2c1ccc(Cl)cc1Cl (stereo not drawn) [compound 473] | 20 | 50 |  |  |  |
| COc1c(Cl)cc(Cl)cc1C1C2=C(CC(C)(C)CC2=O)Nc2ccccc2N1C(=O)C(C)C (stereo not drawn) [compound 62] |  |  | 4.65 | < 4.37 |  |
| CC(=O)N1c2ccccc2NC2=C(C(=O)CC(C)(C)C2)C1c1c(Cl)cc(OCc2ccccc2)cc1Cl (stereo not drawn) [compound 150, 10-acetyl-11-(4-benzyloxy-2,6-dichlorophenyl)-3,3-dimethyl-2,3,4,5,10,11-hexahydro-1H-dibenzo[b,e][1,4]diazepin-1-one] |  |  | 5.77 | < 3.88 |  |
| CCn1c2ccccc2c2cc(C3Nc4ccccc4NC4=C3C(=O)CC(C)(C)C4)ccc21 (stereo not drawn) [compound 501] | 19.8 | > 42.7 |  |  |  |
| O=C1CC(c2ccccc2)CC2=C1C(c1ccccc1[N+](=O)[O-])Nc1ccccc1N2 (stereo not drawn) [compound 396] | 11.3 | > 42.7 |  |  |  |
| O=C1CC(c2ccccc2)CC2=C1C(c1ccc(Cl)cc1)Nc1ccccc1N2 (stereo not drawn) [compound 325] | 16.3 | > 42.6 |  |  |  |
| CCOc1ccccc1C1C2=C(CC(C)(C)CC2=O)Nc2ccccc2N1C(C)=O (stereo not drawn) [compound 125] |  |  | < 4.49 | < 4.37 |  |
| CC(C)CC(=O)N1c2ccccc2NC2=C(C(=O)CC(C)(C)C2)C1c1ccc2c(c1)OCO2 (stereo not drawn) [compound 242] |  |  | 5.75 | < 4.37 |  |
| CC(=O)N1c2ccccc2NC2=C(C(=O)CC(c3ccccc3OCc3ccccc3)C2)C1C(Br)=Cc1ccccc1 (stereo not drawn) [compound 300] |  |  |  |  | pEC50 [1, 5]: 6.15; pIC50 [2, 6]: < 3.88 |
| CCCCCC(=O)N1c2ccccc2NC2=C(C(=O)CC(c3ccccc3OCCC)C2)C1c1ccc(OC)cc1 (stereo not drawn) [compound 222] |  |  |  |  | pEC50 [1, 5]: 5.11; pIC50 [2, 6]: < 4.37 |
| COc1ccc([C@@H]2CC(=O)C3=C(C2)Nc2ccccc2N[C@H]3c2cc3c(cc2[N+](=O)[O-])OCO3)cc1 [compound 485] | 3.39 | > 42.7 |  |  |  |
| O=C1CC(c2ccc(Cl)cc2)CC2=C1C(c1cccc([N+](=O)[O-])c1)Nc1ccccc1N2 (stereo not drawn) [compound 337] | 17.5 | > 42.7 |  |  |  |
| CC1(C)CC(=O)C2=C(C1)Nc1ccccc1N(C(=O)Cc1ccc(Cl)cc1)C2c1ccco1 (stereo not drawn) [compound 253] |  |  | 5.06 | < 4.37 |  |
| CC(=O)N1c2ccccc2NC2=C(C(=O)CC(C)(C)C2)C1c1ccc(Oc2ccccc2Br)cc1 (stereo not drawn) [compound 147, 10-acetyl-11-[4-(2-bromophenoxy)phenyl]-3,3-dimethyl-2,3,4,5,10,11-hexahydro-1H-dibenzo[b,e][1,4]diazepin-1-one] |  |  | 5.37 | 5.71 |  |

| SMILES | EC50 ([1]; Hepatitis C virus, Huh-7, 72 h) [µM] | IC50 [2] [µM] | pEC50 [1, 3] | pIC50 [2, 4] | other results |
| --- | --- | --- | --- | --- | --- |
| CCCCCC(=O)N1c2ccccc2NC2=C(C(=O)CC(c3cccc([N+](=O)[O-])c3)C2)C1c1ccc(OC)cc1 (stereo not drawn) [compound 168] |  |  |  |  | pEC50 [1, 5]: 5.44; pIC50 [2, 6]: < 4.37 |
| COc1ccc(C2C3=C(CC(c4ccc(Cl)cc4)CC3=O)Nc3ccccc3N2C(=O)C(F)(F)F)cc1 (mixture of isomers) [compound 200] |  |  |  |  | pEC50 [1, 5]: 5.02; pIC50 [2, 6]: < 4.48 |
| CC1(C)CC(=O)C2=C(C1)Nc1ccccc1N(C(=O)C(F)(F)F)C2c1ccc(Cl)cc1 (stereo not drawn) [compound 56] |  |  | 4.60 | < 4.37 |  |
| Cn1cccc1C1C2=C(CC(C)(C)CC2=O)Nc2ccccc2N1C(=O)C(F)(F)F (stereo not drawn) [compound 260] |  |  | 4.65 | < 4.37 |  |
| COc1ccc(C2Nc3ccccc3NC3=C2C(=O)CC(C)(C)C3)cc1COc1ccc(F)cc1F (stereo not drawn) [compound 430] | 10.8 | > 33.3 |  |  |  |
| COc1ccc(C2CC(=O)C3=C(C2)Nc2ccccc2NC3c2ccc([N+](=O)[O-])cc2)cc1 (stereo not drawn) [compound 387] | 5.56 | > 42.7 |  |  |  |
| COc1ccc(C2CC(=O)C3=C(C2)Nc2ccccc2NC3c2ccccc2OC)cc1OC (stereo not drawn) [compound 369] | 10 | > 42.7 |  |  |  |
| CCC(=O)N1c2ccccc2NC2=C(C(=O)CC(c3ccc(OC)cc3)C2)C1c1ccc(Cl)cc1 (stereo not drawn) [compound 227] |  |  |  |  | pEC50 [1, 5]: 4.77; pIC50 [2, 6]: < 4.48 |
| CC1(C)CC(=O)C2=C(C1)Nc1ccccc1NC2c1ccc(OCc2ccccc2)c(Cl)c1 (stereo not drawn) [compound 439, 11-[4-benzyloxy-3-chlorophenyl]-3,3-dimethyl-2,3,4,5,10,11-hexahydro-1H-dibenzo[b,e][1,4]diazepin-1-one] | 4.33 | 3.63 |  |  |  |
| CCC(=O)N1c2ccc(C(=O)c3ccccc3)cc2NC2=C(C(=O)CC(C)(C)C2)C1c1ccco1 (stereo not drawn) [compound 261] |  |  |  |  | pEC50 [1, 5]: 5.03; pIC50 [2, 6]: < 4.37 |
| CCC(=O)N1c2ccccc2NC2=C(C(=O)CC(c3ccc(C)cc3)C2)C1c1ccc(C)cc1 (stereo not drawn) [compound 201] |  |  | 5.02 | < 4.48 |  |
| COc1ccc(C2CC(=O)C3=C(C2)Nc2ccccc2N(C(=O)c2ccccc2)C3c2ccc(C)cc2)cc1OC (stereo not drawn) [compound 170] |  |  |  |  | pEC50 [1, 5]: 5.43; pIC50 [2, 6]: < 4.37 |
| COc1cccc(C2C3=C(CC(C)(C)CC3=O)Nc3ccccc3N2C(C)=O)c1 (stereo not drawn) [compound 105] |  |  | < 4.49 | < 4.37 |  |
| O=C1C[C@@H](c2ccc3c(c2)OCO3)CC2=C1[C@H](c1cc3c(cc1Br)OCO3)Nc1ccccc1N2 [compound 493] | 1.3 | > 42.7 |  |  |  |
| CCCCC(=O)N1c2ccccc2NC2=C(C(=O)CC(C)(C)C2)C1c1cccs1 (stereo not drawn) [compound 263] |  |  | 4.98 | < 4.37 |  |
| CCOc1cccc(C2Nc3ccccc3NC3=C2C(=O)CC(c2ccc(Cl)cc2)C3)c1 (stereo not drawn) [compound 379] | 6.79 | > 42.7 |  |  |  |
| CC(=O)N1c2ccccc2NC2=C(C(=O)CC(C)(C)C2)C1CC1CC=C(C)C1(C)C (stereo not drawn) [compound 246] |  |  | 5.73 | < 4.37 |  |
| CCC(=O)N1c2ccccc2NC2=C(C(=O)CC(C)(C)C2)C1c1ccc(-c2ccccc2[N+](=O)[O-])o1 (stereo not drawn) [compound 241] |  |  | 4.77 | < 4.37 |  |
| CCCN1c2ccccc2NC2=C(C(=O)CC(C)(C)C2)C1c1ccc(Cl)cc1Cl (stereo not drawn) [compound 509, 11-(2,4-Dichlorophenyl)-2,3,4,5,10,11-hexahydro-3,3-dimethyl-10-propyl-1H-dibenzo[b,e][1,4]diazepin-1-one] | 0.894 | > 42.7 |  |  |  |
| CCOc1ccc(C2C3=C(CC(C)(C)CC3=O)Nc3ccccc3N2C(=O)Cc2ccccc2)cc1 (stereo not drawn) [compound 86] |  |  | 5.01 | < 4.37 |  |
| CC(=O)N1c2cc(F)c(F)cc2NC2=C(C(=O)CC(C)(C)C2)C1c1ccc(Cl)cc1Cl (stereo not drawn) [compound 310, 10-acetyl-7,8-difluoro-11-(2,4-dichlorophenyl)-3,3-dimethyl-2,3,4,5,10,11-hexahydro-1H-dibenzo[b,e][1,4]diazepin-1-one] |  |  | 4.78 | 4.84 |  |
